Results: doi:10.1101/2024.12.04.24318244v2 (medrxiv, 2024)
Structures can show the parent of a compound that is named as a salt. Where two headings read alike, the source gives them in different places.

How the values were obtained:
Experiment in all cases: radioligand competition binding
[1] = target: S2R
[2] = target: 5-HT2B (Homo sapiens, UniProt P41595)
[3] = target: T1, 5-HT1A (Homo sapiens, UniProt P08908)
T1 sequence (P08908 1-422): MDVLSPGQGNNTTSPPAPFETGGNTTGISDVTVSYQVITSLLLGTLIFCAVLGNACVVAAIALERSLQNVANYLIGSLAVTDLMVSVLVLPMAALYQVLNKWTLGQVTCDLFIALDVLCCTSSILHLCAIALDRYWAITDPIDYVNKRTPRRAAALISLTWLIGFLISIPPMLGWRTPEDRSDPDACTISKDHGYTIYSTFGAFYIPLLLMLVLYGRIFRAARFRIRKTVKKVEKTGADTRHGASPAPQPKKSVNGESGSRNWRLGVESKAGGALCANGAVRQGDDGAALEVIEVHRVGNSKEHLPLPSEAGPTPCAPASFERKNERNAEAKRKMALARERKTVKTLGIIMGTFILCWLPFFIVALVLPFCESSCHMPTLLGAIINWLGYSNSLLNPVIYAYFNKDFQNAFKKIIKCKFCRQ

Sequence of 5-HT2B (P41595 whole entry): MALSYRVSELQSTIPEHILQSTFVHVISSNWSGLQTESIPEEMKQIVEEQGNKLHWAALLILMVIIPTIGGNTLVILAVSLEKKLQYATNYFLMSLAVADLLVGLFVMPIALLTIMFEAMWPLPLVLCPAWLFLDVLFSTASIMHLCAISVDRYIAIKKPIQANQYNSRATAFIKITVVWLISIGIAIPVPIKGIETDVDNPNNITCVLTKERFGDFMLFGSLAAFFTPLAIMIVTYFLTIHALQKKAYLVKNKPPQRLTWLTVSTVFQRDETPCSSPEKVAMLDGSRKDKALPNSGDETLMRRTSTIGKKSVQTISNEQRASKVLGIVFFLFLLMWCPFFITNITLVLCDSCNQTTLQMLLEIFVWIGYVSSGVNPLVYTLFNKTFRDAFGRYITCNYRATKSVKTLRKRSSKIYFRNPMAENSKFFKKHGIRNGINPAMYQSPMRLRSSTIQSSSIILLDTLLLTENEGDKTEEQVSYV

SMILES | Ki [1] [nM] | Ki [2] [nM] | Ki ([3]; text b38 prints a wider range than the table) [nM] | Ki ([1]; text b35 prints a range that differs from the table) [nM] | Ki [3] [nM]
CC(=O)Nc1cccc(N2CCN(CCCCNS(=O)(=O)CC3CCCCC3)CC2)c1 [NP-18-2, N-{3-[4-(4-cyclohexylmethanesulfonylaminobutyl)-piperazin-1-yl]phenyl} acetamide hydrochloride] | > 2000 | > 5000 | 5 to 11 | – | –
N#Cc1cc(CN2CCC(Nc3ncnc4sc(Cl)cc34)CC2)ccc1F [NP-18-3, 5-((4-(6-chlorothieno[2,3-d]pyrimidin-4-ylamino)piperidine-1-yl)methyl)-2-fluorobenzonitrile monofumarate] | 42 | 3.4 | – | – | –
CC(C)n1c(=O)c(C(=O)NCCCN2CCCCC2)c(O)c2ccsc21 [PRX-3140, 6,7-Dihydro-4-hydroxy-7-isopropyl-6-oxo-N-(3-(piperidin-1-yl)propyl)thieno[2,3-b]pyridine-5-carboxamide potassium salt] | – | > 5000 | – | 36.1 | > 5000
